According to patent publication US20110269790A1, “NOVEL THIENOPYRIDINES AS PHARMACOLOGICALLY ACTIVE AGENTS” (priority 2009, published 2011):

What was measured:
rats = experiment: Acute oral toxicity, sighting study in rats; type: in vivo, rat; details: for Toxic symptoms and mortality, sighting study: single oral doses 5, 50, 500, and 2000 mg/kg, observed 14 days
Protocol: In the series of thioenopyridine derivatives compounds BN-4, BN-14 and BN-16 show good antiinflammatory potential in all models tested. […] Acute Oral Toxicity Study was conducted following OECD guidelines by fixed dose method adopted by OECD (420). The study involved preliminary sighting using small number of animals in order to derive the dose effect relation for toxicity and mortality and to provide information on dose selection for the main study.
In the preliminary sighting study, the effect of various dosed administered to single animals of each sex was investigated in a sequential manner. The sighting study generally yields information on the dose-toxicity relationship including an estimate of the minimum lethal dose. In the main study, the test article is administered to groups of 5 males and 5 female animals at one of the fixed doses (5, 50, 500 and 2000 mg/Kg). The dose is derived from the sighting study. It is immediately below that which is expected to result in mortality. If evident toxicity is not seen at the chosen dose level, the substance should be retested at the next higher dose level. If at the initial dose level, animals die, or a severe toxicity reaction requires removal of animals from the study for animal welfare reasons, the substance is retested at the next lower dose level. Consideration of data from the both sighting study and the main study enabled a judgment to be made on determination of maximum tolerated dose.
Sighting Study: Animals were fasted overnight. Following period of fasting, the animals were weighed and were administered the test articles by oral route. After the test substance was administered food was withheld for further 3 to 4 hrs. In the sighting study, the effect of various doses was investigated in single animals of each sex. Dosing was sequential allowing at least 24 hrs before dosing the next animal. All animals were carefully observed for signs and symptoms of toxicity continuously up to 24 hrs and later up to 7 days. […] In this sighting study, the dose that produced evident toxicity but not death was identified. […]

TNF-α = TNF-α in paw tissue, collagen induced arthritis; type: in vivo, rat; details: collagen induced study, day 24, 100 mg/kg/day
Description: It is believed that these proinflammatory cytokines help to propagate a local or systemic inflammatory process, and to induce biosynthesis and secretion of metalloproteinases (MMPs) and osteoclasts that critically contribute to degradation of extracellular matrix and erosion of bone respectively (Burger et al., 1998; Gravallese and Goldring, 2000; Smolen and Steiner, 2003).

IL-1β = IL-1β in rat paw tissue and serum, FCA model (ELISA); type: in vivo; set-up: % Inhibition (IL-1 Beta) / Percentage of Inhibition (IL-1 Beta): concentration or dose not given beside the values; details: for % Inhibition (IL-1 Beta): FCA model
Protocol: Group I—Normal Control; Group II—Arthritic control; Group III—Arthritic rats administered with Synthetic compound BN-4; Group IV—arthritic rats administered with compound BN-14; Group V—arthritic rats administered with BN-16; Group VI—arthritic rats administered with standard drug indomethacin. Administration of test compounds and indomethacin started on the same day of adjuvant injection at the dose of 100 and 2.5 mg/kg respectively. The test and indomethacin doses continued up to 21 days in FCA induced model and 24 days in collagen induced model. During the study period the paw volumes were measured on 5th, 12th, 18th and 21 st days and the weight of the animals was also recorded at different time intervals. At each time point the percentage of inhibition of paw volume was calculated with reference to mean paw volume of control group In FCA model, animals were sacrificed on 21st day by cervical dislocation. Before sacrificing the animals, blood was collected and used for estimation of total leukocyte count, TNF-α and IL-1β.
In FCA induced study paw tissues were collected on termination day and estimated TNF-α and IL-1β levels for all the groups by ELISA method.
On termination day blood samples were collected and serum was used for the estimation of Both TNF-α and IL-1β levels in FCA and Collagen induced studies. Both the parameters were determined using ELISA kits. TNF-α could not be determined as their expression is very less in serum samples of the rats in the two models studied, where as IL-1β expression in serum was good. Daily treatment of synthetic compounds by oral administration was effective in reducing the serum IL-1β levels (P<0.01) when compared with arthritic control group.

Nitric oxide = Nitric oxide (nitrite, Griess) estimation in LPS treated RAW 264.7 macrophages; type: cell-based, mouse; details: 24 hrs, different concentrations, vs LPS treated control
Protocol: Cell Culture and Treatment: The RAW 264.7 (mouse macrophages, national center for cellular sciences) cells were grown in plastic T-25 culture flask in Dulbeccos modified eagles medium (DMEM) without phenol red supplemented with 10% heat activated serum (heating at 57° C. for 30 minutes, 100 μg per ml penicillin, 200 μg per ml streptomycin, 2 mmol L-glutamine, 1% antibiotic/Anti mycotic solution (GIBCO/SRL) under 5% co2 with 85% relative humidity at 37° C. After 2-3 days cells were removed from the culture flask by tripsinizing the cells with Trypsin EDTA solution. Cell count and viability was performed using a standard Trypan blue dye exclusion method. The cell concentration was adjusted to 1×10^5 cells per ml in each well with the same media in the 12 well plates. After 24 hrs incubation the media was removed from each well replaced with a fresh one containing different concentrations (50 μg, 25 μg, 12.5 μg) of the synthetic compounds BN-4, BN-14 and BN-16 along with 10 μg/ml LPS, where as normal control (PBS) and positive controls (Dexa, Roli) LPS (10 μg/ml), were added. 200 μl of media from each well was collected at 6 hrs for the estimation of TNF-α and after 24 hrs for Nitric Oxide respectively. The adherent cells, which remained after removing the media was subjected to […] for determining the cytotoxicity of compounds at selected concentrations
Measurement of Nitrite: For determination of nitric oxide concentration, the stable conversion product of nitric oxide, nitrite (NO^2−) was measured using the Griess reagent (Chi et, al., 2001). After 24 hrs incubation a volume of 100 μl of supernatant from each well of cell culture plates was transferred to 96 well micro plate and equal volume of Griess reagent (1% sulphanilamide, 0.1% N-(1-naphthyl ethylene diamine hydrochloride), 2.5% H3PO4) was then added to the supernatant at room temperature. The absorbance at 570 nm was determined in multi detection Microplate reader after 10 min. Nitric oxide concentration was calculated using standard curve.

[1] = paw tissue, termination day (21st day), BN compounds 100 mg/kg, indomethacin 2.5 mg/kg
[2] = rat serum, termination day, FCA induced arthritis

SMILES	melting point	Inhibition of TNF-α in paw tissues (TNF-α)	IL-1 Beta concentration (IL-1β; [1])	% Inhibition (IL-1 Beta) (IL-1β; paw tissue, termination day)	IL-1 Beta concentration (IL-1β; [2])	Percentage of Inhibition (IL-1 Beta) (IL-1β; [2])	also measured
Cc1sc2nc3c(c(N)c2c1C)CCC3 [BN-1, 2,3-dimethyl-6,7-dihydro-5H-cyclopenta[b]thieno[3,2-e]pyridin-4-amine]	231 °C	–	–	–	–	–	–
Cc1sc2nc3c(c(N)c2c1C)CCCC3 [BN-2, 2,3-dimethyl-5,6,7,8-tetrahydrothieno[2,3-b]quinolin-4-amine]	210 °C	–	–	–	–	–	–
Cc1sc2nc3c(c(N)c2c1C)CCCCC3 [BN-4, 2,3-dimethyl-6,7,8,9-tetrahydro-5H-cyclohepta[b]thieno[3,2-e]pyridin-4-amine]	–	more significant inhibition (p<0.01)	92.07 ± 10.70 ng/gm of tissue	33.59 ± 5.53%	22.83 ± 9.93 Pg/ml of tissue	29.28 ± 3.60%	Toxic symptoms and mortality, sighting study (rats): do not show any toxic symptoms and mortality; Release of NO from murine macrophage cell line (Nitric oxide): significantly (p<0.01) suppressed
Nc1c2c(nc3sc4c(c13)CCCC4)CCC2 [BN-5, 2,3,6,7,8,9-Hexahydro-1H-benzo[4,5]thieno[2,3-b]cyclopenta[e]pyridin-10-amine]	221 °C	–	–	–	–	–	–
Nc1c2c(nc3sc4c(c13)CCC4)CCC2 [BN-13, 1,2,3,6,7,8-hexahydrocyclopenta [b]cyclopenta[4,5] thieno[3,2-e]pyridin-9-amine]	245 °C	–	–	–	–	–	–
Nc1c2c(nc3sc4c(c13)CCC4)CCCC2 [BN-14, 2,3,6,7,8,9-Hexahydro-1H-cyclopenta[4,5]thieno[2,3-b]quinolin-10-amine]	–	more significant inhibition (p<0.01)	113.0 ± 26.8 ng/gm of tissue	38.49 ± 14.97%	50.83 ± 6.11 Pg/ml of tissue	22.17 ± 6.51%	Toxicity, sighting study (rats; doses 2000 and 1250 mg/kg in rats): toxic; Release of NO from murine macrophage cell line (Nitric oxide): significantly (p<0.01) suppressed
CC1CCc2c(nc3sc4c(c3c2N)CCC4)C1 (stereo not drawn) [BN-15, 7-Methyl-2,3,6,7,8,9-hexahydro-1H-cyclopenta[4,5]thieno[2,3-b]quinolin-10-amine]	263.2 °C	–	–	–	–	–	–
Nc1c2c(nc3sc4c(c13)CCC4)CCCCC2 [BN-16, 1,2,3,6,7,8,9,10-Octahydrocyclohepta[b]cyclopenta[4,5]thieno[3,2-e]pyridine-11-amine]	–	moderate inhibition (p<0.05)	68.87 ± 21.1 ng/gm of tissue	40.51 ± 9.56%	17.0 ± 4.50 Pg/ml of tissue	32.48 ± 6.22%	Toxic symptoms and mortality, sighting study (rats): do not show any toxic symptoms and mortality; Release of NO from murine macrophage cell line (Nitric oxide): significantly (p<0.01) suppressed
Nc1c2c(nc3sc4c(c13)CCC4)CCCCCC2 [BN-17, 2,3,6,7,8,9,10,11-Octahydro-1H-cycloocta [b]cyclopenta[4,5]thieno[3,2-e]pyridin-12-amine]	256 °C	–	–	–	–	–	–
Nc1c2c(nc3sc4c(c13)CCCCC4)CCC2 [BN-18, 1,2,3,6,7,8,9,10-Octahydrocyclohepta[4,5] thieno[2,3-b]cyclopenta [e]pyridin-11-amine]	255 °C	–	–	–	–	–	–
COc1ccc2c(c1)c(CC(=O)O)c(C)n2C(=O)c1ccc(Cl)cc1 [Indomethacin, reference compound]	–	moderate inhibition (p<0.05)	81.02 ± 17.98 ng/gm of tissue	40.42 ± 8.73%	46.0 ± 7.91 Pg/ml of tissue	20.04 ± 5.33%	–
